Target: Serine/threonine-protein phosphatase 5 (Homo sapiens) (UniProt P53041)
Assay: PP5 inhibitor potency, dose response, orthogonal assay for PP5 inhibitor project, biochemical, radiolabel, powder samples (AID 463224)
Settings: purified PP5c, 33P-phosphohistone dephosphorylation, scintillation

Sequence of Serine/threonine-protein phosphatase 5 (Homo sapiens) (P53041 whole entry, looked up): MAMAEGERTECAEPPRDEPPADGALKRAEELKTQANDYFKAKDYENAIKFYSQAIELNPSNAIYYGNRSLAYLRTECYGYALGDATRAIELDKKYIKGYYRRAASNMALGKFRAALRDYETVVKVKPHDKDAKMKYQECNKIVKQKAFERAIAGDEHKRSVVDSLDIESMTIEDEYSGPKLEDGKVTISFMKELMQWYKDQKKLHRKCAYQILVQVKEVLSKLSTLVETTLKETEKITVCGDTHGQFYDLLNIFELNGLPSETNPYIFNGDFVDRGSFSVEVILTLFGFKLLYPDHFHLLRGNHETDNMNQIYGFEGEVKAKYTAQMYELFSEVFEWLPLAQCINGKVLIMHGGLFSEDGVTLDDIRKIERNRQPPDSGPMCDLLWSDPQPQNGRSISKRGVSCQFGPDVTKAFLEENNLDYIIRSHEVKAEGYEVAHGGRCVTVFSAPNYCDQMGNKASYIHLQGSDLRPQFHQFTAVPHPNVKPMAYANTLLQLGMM

O=C(O)C1C2CCC(O2)C1C(=O)NC1CCCCC1 (configuration not stated)
IC50: 13.5 µM

O=C(O)c1n[nH]nc1-c1ccccc1
IC50: 40.6 µM
